Numbered stars: 1 amine (or outer) side, 2 acyl side, 3 side chain; on linkers, the order of the positions; unused ones are H or OH. Bridge positions count the residues as written; N and C are the ends. Square brackets hold non-standard residues; d marks the D form. Peptide text beside a SMILES is read from it. I, II: the chains in the order shown. Actinocin(9to1) = Cc1c2oc3c(C)ccc(C(=O)[*:1])c3nc-2c(C(=O)[*:2])c(N)c1=O; NMeV = CN[C@H](C(=O)O)C(C)C; Sar = CNCC(=O)O

This note sets out measurements from patent publication US20100144543A1, “Epigenetic silencing of tumor suppressor genes” (The Salk Institute for Biological Studies, priority 2008, published 2010).

Format in all cases: cell-based, human
The test system of experiment [1] is p16. Briefly: Inhibition of transcription, RT-PCR of p16. Conditions: MDA-MB-435 cells, 24 hours, 2.5 μg/ml Actinomycin D or 1 μM Flavopiridol. The source says: (§1) CTCF is a ubiquitous, multifunctional protein that has a critical role in organizing distinct chromosomal domains through boundary/insulator formation (Filippova et al. (2005) “Boundaries between chromosomal domains of X inactivation and escape bind CTCF and lack CpG methylation during early development.” Dev Cell 8: 31-42; Ishihara et al. (2006) “CTCF-dependent chromatin insulator is linked to epigenetic remodeling.” Mol Cell 23: 733-742; Splinter et al. (2006) “CTCF mediates long-range chromatin looping and local histone modification in the beta-globin locus.” Genes Dev 20: 2349-2354) and in repressing or activating transcription. Because we saw a pronounced change in chromatin structure upstream of the p16 gene when active or silenced (FIG. 1), we explored the possibility that CTCF can associate within this region. […] Yet, we detected CTCF binding at a well-characterized target gene, c-Myc, in both p16-expressing and non-expressing cell types. […] CTCF was immunoprecipitated and analyzed for association with the p16^INK4a and RASSF1A gene. […]
(§2) MDA-MB-435 cells were treated with Flavopiridol (Sigma) or Actinomycin D (Sigma) at 1 μM and 2.5 μg/ml, respectively, for 24 hours. At this time cells were harvested and analyzed for gene expression and CTCF binding.

Experiment [2] concerns RASSF1A. Briefly: Inhibition of transcription, RT-PCR of RASSF1A. Conditions: MDA-MB-435 cells, 24 hours, 2.5 μg/ml Actinomycin D or 1 μM Flavopiridol.
From the text: as §1, §2

Experiment [3] concerns p16. Briefly: qPCR expression analysis of CTCF target gene p16 upon inhibition of PARP activity. The following applies: MDA-MB-435 cells, 24 hours, 5 mM 3-ABA, normalized to c-Myc. The method, then:
(§3) Next, we examined whether PARlation of target proteins impacts the expression of CTCF-regulated tumor suppressor genes. To achieve this, we perturbed cellular PARlation activity in p16-expressing cells by two approaches: first, incubation with the broad-spectrum PARP inhibitor 3-ABA; and second, shRNA-mediated ablation of PARP-1. […] Results are normalized to c-Myc levels. Error bars represent ±standard deviation.
(§4) PARP-1 knockdown was achieved using the MISSION™ Lentiviral shRNA system from Sigma. Lentiviral particles were packaged in HEK293T cells, with virus collected 24 hours post-transfection. Cells infected with shRNA-containing virus and polybrene were selected using puromycin at 72 hours post infection.

The subject of experiment [4] is RASSF1A. Briefly: qPCR expression analysis of CTCF target gene RASSF1A upon inhibition of PARP activity. The following applies: MDA-MB-435 cells, 24 hours, 5 mM 3-ABA, normalized to c-Myc. The method, then: as §3, §4
On the technique in general: Real-time PCR tracks product formation cycle by cycle.

The test system of the next experiment is CTCF. Briefly: PARlation status of CTCF, IP with anti-PAR antibody. The following applies: MDA-MB-435 cells, treated with 3-ABA for 24 hours. The method, then: As described above, CTCF may be important for maintaining an active p16 gene. To further investigate possible CTCF defects that may impact its function in p16-silenced T47D breast cancer cells, we examined its post-translational modifications and association with several known protein interaction partners. […] In addition, western blots were performed to determine the protein levels of CTCF and putative interacting partners in MDA-MB-435 and T47D cells (FIG. 4B). […] Moreover, PARP-1 and Nucleolin appear to associate with CTCF in a mutually exclusive manner, with Nucleolin being present in CTCF complexes only in p16 expressing cells. To explore this further, we examined the PARlation status of CTCF in each cell type using an antibody that recognizes ADP-ribose polymers (PAR). Unexpectedly, we found PARlation associated with both CTCF and Nucleolin in p16-expressing MDA-MB-435 cells but not in p16-silenced TD47 cells (FIG. 4D, upper panels). […] Inputs are equal to 2.5% starting material.
2 mg of whole cell lysates were diluted in IP buffer with 0.5% Triton X-100. Protein mixes were pre-cleared for 1-2 hours with protein G Sepharose, after which the beads were removed and CTCF (Upstate) or anto-phosphotyrosine (Upstate) antibody added overnight at 4° C. to capture complexes. Complexes were recovered with protein G Sepharose, washed 4 times in IP buffer and subsequently analyzed by SDS-PAGE.

The test system of another experiment is p16 gene. Briefly: p16 mRNA induction after AZA treatment (RT-PCR, qPCR). Conditions: T47D cells treated with both AZA and Trichostatin A. The text has this: The p16 tumor suppressor gene is commonly silenced in numerous types of human cancers and remains a relevant therapeutic target of wide interest. One method that is extensively employed to restore p16 expression, both clinically and in vitro, is treatment of cancer cells with hypomethylating-nucleoside analogues such as 5′AZA-2′-deoxycytidine (AZA) (Otterson et al. (1995) “CDKN2 gene silencing in lung cancer by DNA hypermethylation and kinetics of p16INK4 protein induction by 5-aza 2′ deoxycytidine.” Oncogene 11: 1211-1216; Schrump et al. (2006) “Phase I study of decitabine-mediated gene expression in patients with cancers involving the lungs, esophagus, or pleura.” Clin Cancer Res 12: 5777-5785), which reverses DNA methylation. We reasoned that treatment of cells with AZA might also restore CTCF binding at the p16 upstream promoter through one of two mechanisms. First, CTCF is known to bind DNA in a methylation-sensitive fashion (Hark et al. (2000) “CTCF mediates methylation-sensitive enhancer-blocking activity at the H19/Igf2 locus.” Nature 405: 486-489); thus, demethylation of the p16 locus might allow CTCF to reassociate. […]

Take `Cc1c2oc3c(C)ccc(C(=O)N[C@@H]4C(=O)N[C@H](C(C)C)C(=O)N5CCC[C@H]5C(=O)N(C)CC(=O)N(C)[C@@H](C(C)C)C(=O)O[C@@H]4C)c3nc-2c(C(=O)N[C@@H]2C(=O)N[C@H](C(C)C)C(=O)N3CCC[C@H]3C(=O)N(C)CC(=O)N(C)[C@@H](C(C)C)C(=O)O[C@@H]2C)c(N)c1=O` [Actinomycin D] (I: T[dV]P[Sar][NMeV] / II: T[dV]P[Sar][NMeV]; ester I:1-I:C, II:1-II:C; linker I:N-II:N via Actinocin(9to1)): the p16 transcription entry in the experiment on p16 [1] is on record as “inhibition”. Further, in the experiment with RASSF1A [2], the RASSF1A transcription entry is given as “inhibition”.

In the case of `NC(=O)c1cccc(N)c1` [3-ABA, 3-Aminobenzamide], the “p16 mRNA levels” value in the experiment with p16 [3] is listed as “significant reduction”. For the same compound, in the experiment on RASSF1A [4], the “RASSF1A mRNA levels” value was “dramatic decrease”. Moreover, the “PARlation associated with CTCF and Nucleolin” value with CTCF is recorded as “inhibited”.

Turning to `CN1CC[C@H](c2c(O)cc(O)c3c(=O)cc(-c4ccccc4Cl)oc23)[C@H](O)C1` [Flavopiridol], in the experiment on p16 [1], the p16 transcription entry is on record as “inhibition”. Further, in the experiment with RASSF1A [2], the RASSF1A transcription result is on record as “inhibition”.

Consider `CC(/C=C/C(=O)NO)=C\[C@@H](C)C(=O)c1ccc(N(C)C)cc1` [Trichostatin A], for which the “synergistic p16 gene reactivation” value in the experiment with p16 gene is given as “No synergistic p16 gene reactivation”.
